According to ChEMBL document CHEMBL5338739, “Discovery of Dual Lysine Methyltransferase G9a and EZH2 Inhibitors with In Vivo Efficacy against Malignant Rhabdoid Tumor” (J Med Chem, 2023):
The source made the active and inactive calls. The calls are words filed in the database; no cut-off is given here.

What was measured:
RD [1] = test: Downregulation of H3K4me1 expression in human RD cells at 5 uM incubated for 6 days by immunoblotting analysis; assay type: functional, cell-based; settings: time 6.0 day
[2] = Cmax in Sprague-Dawley rat at 10 mg/kg, iv administered for 12 hrs by HPLC analysis; assay type: ADME, organism-based; design: dose 10 mg/kg, time 12 hrs, route iv; settings: in vivo
[3] = AUC (0 to infinity) in Sprague-Dawley rat at 10 mg/kg, iv administered for 12 hrs by HPLC analysis; assay type: ADME, organism-based; design: time 12 hrs, dose 10 mg/kg, route iv; settings: in vivo
[4] = Toxicity in BALB/c nude mouse xenografted with human RD cells assessed as effect on liver viscera index at 10 to 20 mg/kg, ip administered for 5 consecutive days followed by 2 rest days for 3 weeks; assay type: organism-based; settings: in vivo, 504 h, dose 10-20 mg/kg
RD [5] = test: Cytotoxicity against human RD cells assessed as reduction in cell viability incubated for 72 hrs by MTT assay; assay type: functional
RD [6] = test: Downregulation of H3K79me2 expression in human RD cells at 5 uM incubated for 6 days by immunoblotting analysis; assay type: functional, cell-based; settings: time 6.0 day
[7] = target: Histone-lysine N-methyltransferase, H3 lysine-79 specific (Homo sapiens) (UniProt Q8TEK3); test: Inhibition of […] (unknown origin) using SAM as substrate at 10 uM by time-resolved fluorescence assay relative to control
Sequence of Histone-lysine N-methyltransferase, H3 lysine-79 specific (Homo sapiens) (Q8TEK3 whole entry, looked up): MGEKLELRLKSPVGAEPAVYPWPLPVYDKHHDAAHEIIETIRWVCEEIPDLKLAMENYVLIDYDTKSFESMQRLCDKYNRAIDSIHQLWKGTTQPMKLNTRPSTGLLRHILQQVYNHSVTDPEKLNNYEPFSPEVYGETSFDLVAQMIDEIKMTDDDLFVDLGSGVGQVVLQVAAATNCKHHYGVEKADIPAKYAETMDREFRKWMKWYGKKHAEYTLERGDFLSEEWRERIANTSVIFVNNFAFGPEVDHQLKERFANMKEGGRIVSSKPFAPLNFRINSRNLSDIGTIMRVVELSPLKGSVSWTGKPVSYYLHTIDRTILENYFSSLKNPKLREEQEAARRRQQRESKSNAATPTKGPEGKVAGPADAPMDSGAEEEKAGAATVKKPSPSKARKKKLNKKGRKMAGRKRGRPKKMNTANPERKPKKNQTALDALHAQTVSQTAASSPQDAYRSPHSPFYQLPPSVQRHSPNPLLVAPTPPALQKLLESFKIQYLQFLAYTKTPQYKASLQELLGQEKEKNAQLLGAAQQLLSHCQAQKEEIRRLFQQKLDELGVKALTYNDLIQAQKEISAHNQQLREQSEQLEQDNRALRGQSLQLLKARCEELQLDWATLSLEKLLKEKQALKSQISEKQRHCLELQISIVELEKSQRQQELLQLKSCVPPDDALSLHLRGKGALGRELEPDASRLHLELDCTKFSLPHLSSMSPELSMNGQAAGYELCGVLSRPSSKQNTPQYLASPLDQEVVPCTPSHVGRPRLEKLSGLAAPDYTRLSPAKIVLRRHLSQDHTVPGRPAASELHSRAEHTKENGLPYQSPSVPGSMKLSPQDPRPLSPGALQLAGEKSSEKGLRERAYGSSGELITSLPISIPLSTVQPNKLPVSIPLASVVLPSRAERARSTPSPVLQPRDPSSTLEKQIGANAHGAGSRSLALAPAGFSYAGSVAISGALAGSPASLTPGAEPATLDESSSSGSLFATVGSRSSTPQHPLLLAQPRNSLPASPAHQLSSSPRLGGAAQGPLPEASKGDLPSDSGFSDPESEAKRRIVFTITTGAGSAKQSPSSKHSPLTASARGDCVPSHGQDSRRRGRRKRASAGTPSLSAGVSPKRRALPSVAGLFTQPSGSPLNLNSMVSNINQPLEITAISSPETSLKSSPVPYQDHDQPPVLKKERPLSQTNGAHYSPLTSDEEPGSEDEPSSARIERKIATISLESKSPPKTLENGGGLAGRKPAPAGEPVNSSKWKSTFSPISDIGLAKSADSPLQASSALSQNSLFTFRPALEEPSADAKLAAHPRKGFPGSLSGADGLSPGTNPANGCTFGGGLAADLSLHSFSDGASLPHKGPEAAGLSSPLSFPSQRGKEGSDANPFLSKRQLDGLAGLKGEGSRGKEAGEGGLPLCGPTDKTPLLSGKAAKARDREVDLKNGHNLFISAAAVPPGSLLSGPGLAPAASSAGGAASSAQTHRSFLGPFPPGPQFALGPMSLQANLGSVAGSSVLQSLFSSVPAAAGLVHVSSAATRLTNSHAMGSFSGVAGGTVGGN

RD [8] = test: Downregulation of H3K9me2 expression in human RD cells at 5 uM incubated for 6 days by Western blotting analysis; assay type: functional, cell-based; settings: time 6.0 day
Mus musculus = test: Downregulation of H3K27me3 expression in tumor tissue of BALB/c nude mouse xenografted with human RD cells at 20 mg/kg, ip administered for 5 consecutive days followed by 2 rest days for 3 weeks by Western blotting analysis; assay type: functional, organism-based
[9] = Toxicity in BALB/c nude mouse xenografted with human RD cells assessed as effect on spleen viscera index at 10 to 20 mg/kg, ip administered for 5 consecutive days followed by 2 rest days for 3 weeks; assay type: organism-based; settings: in vivo, 504 h, dose 10-20 mg/kg
[10] = AUC (0 to 24 hrs) in Sprague-Dawley rat at 30 mg/kg, po administered for 24 hrs by HPLC analysis; assay type: ADME, organism-based; design: time 24 hrs, dose 30 mg/kg, route po; settings: in vivo
RD [11] = test: Downregulation of H3K36me2 expression in human RD cells at 5 uM incubated for 6 days by immunoblotting analysis; assay type: functional, cell-based; settings: time 6.0 day
RD [12] = test: Downregulation of H3K79me1 expression in human RD cells at 5 uM incubated for 6 days by immunoblotting analysis; assay type: functional, cell-based; settings: time 6.0 day
RD [13] = test: Downregulation of H3K79me3 expression in human RD cells at 5 uM incubated for 6 days by immunoblotting analysis; assay type: functional, cell-based; settings: time 6.0 day
[14] = Tmax in Sprague-Dawley rat at 10 mg/kg, iv administered for 12 hrs by HPLC analysis; assay type: ADME, organism-based; settings: in vivo
[15] = AUC (0 to infinity) in Sprague-Dawley rat at 30 mg/kg, po administered for 24 hrs by HPLC analysis; assay type: ADME, organism-based; design: time 24 hrs, dose 30 mg/kg, route po; settings: in vivo
[16] = Half life in Sprague-Dawley rat at 10 mg/kg, iv administered for 12 hrs by HPLC analysis; assay type: ADME, organism-based; settings: in vivo
RD [17] = test: Downregulation of H3K4me2 expression in human RD cells at 5 uM incubated for 6 days by immunoblotting analysis; assay type: functional, cell-based; settings: time 6.0 day
SW982 [18] = test: Cytotoxicity against human SW982 cells assessed as reduction in cell viability incubated for 72 hrs by MTT assay; assay type: functional
[19] = Toxicity in BALB/c nude mouse xenografted with human RD cells assessed as effect on kidney viscera index at 10 to 20 mg/kg, ip administered for 5 consecutive days followed by 2 rest days for 3 weeks; assay type: organism-based; settings: in vivo, 504 h, dose 10-20 mg/kg
[20] = target: Histone-lysine N-methyltransferase, H3 lysine-79 specific (Homo sapiens) (UniProt Q8TEK3); test: Binding affinity to DOT1L in human RD cells assessed as increase in protein thermal stability at 5 uM incubated for 4 hrs by CETSA based Western blot analysis; assay type: cell-based
RD [21] = test: Antitumor activity against EZH2 and G9a knockdown human RD cells xenografted in BALB/c nude mouse assessed as tumor growth inhibition at 20 mg/kg, ip administered for 15 days; assay type: functional, organism-based; settings: time 15.0 day
[22] = Apparent volume of distribution in Sprague-Dawley rat at 10 mg/kg, iv administered for 12 hrs by HPLC analysis; assay type: ADME, organism-based; settings: in vivo, read-out: Vc
RD [23] = test: Antiproliferative activity against EZH2 and G9a knockdown human RD cells assessed as reduction in clone formation rate at 5 uM for 1 to 2 weeks with fresh medium replacement for every 2 to 3 days by crystal violet staining based microscopic analysis; assay type: functional, cell-based; settings: time 1-2 weeks
SW982 [24] = test: Antiproliferative activity against human SW982 cells assessed as reduction in clone formation rate at 5 uM for 1 to 2 weeks with fresh medium replacement for every 2 to 3 days by crystal violet staining based microscopic analysis; assay type: functional, cell-based; settings: time 1-2 weeks

With COc1cc2c(NCc3c(C)cc(C)[nH]c3=O)nc(N3CCC(F)(F)CC3)nc2cc1OCCCN1CCCC1 as the molecule, how does the Activity (RD [1]) read?
Its Activity is “inactive”.

What about the Cmax [2] of the same molecule?
The Cmax was 1380 ng/mL.

And the AUC [3]?
The AUC was 2476.02 ng·h/mL.

And the Activity [4]?
Its Activity is “Non-Toxic”.

What about the CC50 (RD [5]) of the same molecule?
Its CC50 is 19.6 µM.

And the Activity (RD [6])?
The Activity was “inactive”.

What about the inhibition [7] of the same molecule?
The inhibition was -5.87%.

What about the Activity (RD [8]) of the same molecule?
Its Activity is “Active”.

And the Activity (Mus musculus)?
Its Activity is “Active”.

What about the Activity [9] of the same molecule?
The Activity was “Non-Toxic”.

And the AUC(0-t) at 24 h [10]?
The AUC(0-t) at 24 h was 5350 ng·h/mL.

What about the Activity (RD [11]) of the same molecule?
The Activity was “inactive”.

What about the Activity (RD [12]) of the same molecule?
The Activity was “inactive”.

And the Activity (RD [13])?
Its Activity is “inactive”.

What about the Tmax [14] of the same molecule?
Its Tmax is 0.17 h.

What about the AUC(0-inf) [15] of the same molecule?
The AUC(0-inf) was 11400 ng·h/mL.

What about the half-life [16] of the same molecule?
The half-life was 3.47 h.

And the Activity (RD [17])?
Its Activity is “inactive”.

What about the CC50 (SW982 [18]) of the same molecule?
The CC50 was 19.9 µM.

What about the Activity [19] of the same molecule?
Its Activity is “Non-Toxic”.

And the Activity [20]?
The Activity was “inactive”.

What about the inhibition (RD [21]) of the same molecule?
Its inhibition is “inactive”.

And the Vd [22]?
The Vd was 4.54 L/kg.

And the Activity (RD [23])?
The Activity was “inactive”.

What about the Activity (SW982 [24]) of the same molecule?
Its Activity is “Active”.
